Measurements from US20210161134A1, “HERBICIDE AND METHOD OF APPLYING A HERBICIDE” (priority 2015, published 2021).
Where two headings read alike, the source gives them in different places.

Experiments:
common yarroen = assay: Killing of common yarrow by amino acid; type: in vivo
Canada thistle = assay: Killing of Canada thistle by amino acid herbicide (FIG. 1)
morning glories = assay: Killing of morning glories by amino acid; type: in vivo
Field Bindweed = assay: Killing of field bindweed by amino acid (FIG. 4); type: in vivo
Rush Skeleton weed = assay: Killing of rush skeleton weed by amino acid (FIG. 3); type: in vivo
hoary alssum = assay: Killing of hoary alyssum by amino acid; type: in vivo
wild rubarb = assay: Killing of wild rhubarb by amino acid; type: in vivo
dandilions = assay: Killing of dandelions by amino acid herbicide; type: in vivo, dandelion
hounds tongue = assay: Killing of hounds tongue by amino acid; type: in vivo
leafy spurge = assay: Killing of leafy spurge by amino acids; type: in vivo
Spotted Knapweed = assay: Killing of spotted knapweed by amino acids; type: in vivo

**Q.** What does the source list for `NCCCC[C@H](N)C(=O)O` [L-Lysine]?
**A.** kill of the weed (common yarroen): kill; kill of the weed (Canada thistle): kill; kill of the weed (Canada thistle; listed as lysine): kills the plant; kill of the weed (morning glories): kill; kill of the weed (Field Bindweed): killed; kill of the weed (Rush Skeleton weed): kill; kill of the weed (Rush Skeleton weed; listed as Lysine): killed; kill of the weed (hoary alssum): kill; kill of the weed (wild rubarb): kill; kill of the weed (dandilions): kill; kill of the weed (hounds tongue): kill; kill of the weed (leafy spurge): kill

**Q.** `CSCC[C@H](N)C(=O)O` [L-methionine] was tested. Which “kill of the weed” value (Spotted Knapweed) did it give?
**A.** kill

**Q.** And the “kill of the weed” value (Canada thistle)?
**A.** kills the plant

**Q.** What about the “kill of the weed” value (eurasian milfoil) of the same compound?
**A.** kill

**Q.** What about the “kill of the weed” value (Kudzu) of the same compound?
**A.** kill

**Q.** What about the “kill of the weed” value (Kudzu; listed as Methionine) of the same compound?
**A.** killed

**Q.** And the “kill of the weed” value (poa anna)?
**A.** kill

**Q.** How did the “kill of the weed” value (hounds tongue) turn out when `CC(C)[C@H](N)C(=O)O` [Valine] was run?
**A.** killed
